Here are results for 2 molecules from article PMC6044897 (ACS Omega, 2017).

For one assay, the target named is T1, M2R (Homo sapiens, UniProt P08172).
T1 sequence (P08172 1-466): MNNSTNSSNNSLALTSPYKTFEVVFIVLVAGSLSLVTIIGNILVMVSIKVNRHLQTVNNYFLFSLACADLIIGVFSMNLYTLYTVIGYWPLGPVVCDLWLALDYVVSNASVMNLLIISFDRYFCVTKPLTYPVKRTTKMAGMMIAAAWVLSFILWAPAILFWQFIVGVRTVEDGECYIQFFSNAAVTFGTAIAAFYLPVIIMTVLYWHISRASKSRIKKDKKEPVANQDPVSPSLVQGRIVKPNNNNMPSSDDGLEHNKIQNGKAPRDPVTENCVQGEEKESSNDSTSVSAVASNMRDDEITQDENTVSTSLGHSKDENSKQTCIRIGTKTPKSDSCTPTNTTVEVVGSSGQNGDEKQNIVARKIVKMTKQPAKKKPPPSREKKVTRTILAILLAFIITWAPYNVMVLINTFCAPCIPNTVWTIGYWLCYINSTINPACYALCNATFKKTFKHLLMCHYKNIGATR
In words: Equilibrium competition binding with [^3H]64 at CHO-hM2R cell homogenates.

For another assay, the target named is M1R–M5R. Particulars: read-out: Ki (M1R–M4R); range over M1R–M4R; cited from earlier work.

Turning to `CCCCCCOc1nsnc1C1=CCCN(C)C1` [Compound 1, xanomeline], on M2R, the “displacement of [^3H]64 from the M2R-specific binding sites” value was “completely displaced”. As usually defined, the Ki is a measure of affinity in units of concentration, obtained from inhibition or displacement. In the case of `CC(C)[N+](C)(CCOC(=O)C1c2ccccc2Oc2ccccc21)C(C)C` [Compound 4, propantheline], the Ki at M1R–M5R is 0.057 to 0.33 nM.
